The text below walks through data of PubChem BioAssay (NCI).

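Compound exposure: 48 hours, 5 concentrations, 96-well plates. Abbreviation: GI50, concentration required for 50% inhibition of growth. At the TGI there is no net growth.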

What all share (assay): NCI anticancer screen, dose series, 48 h
Experiment [1] relates to DMS 273 small cell lung.
In experiment [2] the test system is DMS 114 small cell lung.
Experiment [3] relates to XF 498 CNS.
Experiment [4] relates to SNB-78 CNS.
Experiment [5] concerns LXFL 529 NSCLC.
The test system of experiment [6] is HOP-18 NSCLC.
The test system of experiment [7] is DLD-1 colon.
Experiment [8] has as its system RXF-631 renal.
In experiment [9] the test system is MDA-N.

Consider `C=C(C(=C)P(=S)(c1ccccc1)c1ccccc1)P(=S)(c1ccccc1)c1ccccc1`, for which the TGI in experiment [1], in experiment [2], in experiment [3], in [4], in experiment [5] and in experiment [6] was more than 100 µM throughout.
In the case of `COc1ccccc1NC(=O)c1nc2ccc([N+](=O)[O-])cc2nc1C`, the TGI in experiment [1] is more than 100 µM; in experiment [2], more than 100 µM; in [3], 73.8 µM; in experiment [7], more than 100 µM; in experiment [5], more than 100 µM; in experiment [6], 39.9 µM.
On to `O=C(/C(=C\c1ccc(Cl)cc1)c1ccccc1)c1ccccc1`, for which the TGI in [2] is more than 100 µM; in experiment [3], 95.5 µM; in experiment [4], more than 100 µM; in [7], more than 100 µM; in experiment [5] it was more than 100 µM; in [6], more than 100 µM.
On to `COc1ccc(C(=O)C(c2ccc(OCc3ccccc3)cc2)c2ccc(OCc3ccccc3)cc2)cc1`, for which the TGI in experiment [1], in experiment [2], in experiment [8], in experiment [3], in experiment [4] and in [7] was more than 100 µM in each case.
As to `CN1CCN(C)C12C=CC=CC21CC1`, the TGI in experiment [1], in experiment [2], in experiment [8], in experiment [3], in [4] and in experiment [7] was more than 100 µM each time. In experiment [6], the TGI was more than 100 µM.
For the molecule `CC(=O)OC12COC1CC(O)C1(C)C(=O)C(O)C3=C(C)C(O)CC(O)(C(OC(=O)c4ccccc4)C21)C3(C)C` (centres undefined), the TGI in [1] was 17.6 µM; in experiment [3], more than 100 µM; in experiment [4], more than 100 µM.
In the case of `CC1=CC(N2C(=O)C(C)=CC2O)NC1=O` (centres undefined), the TGI in experiment [4], in [7] and in experiment [5] was more than 100 µM each time.
Regarding `Nc1cc(=O)n(-c2ccccc2)c(=S)n1-c1ccccc1`, the TGI in experiment [1], in [2], in [3], in experiment [4], in experiment [7] and in experiment [5] was more than 100 µM in each case.
In the case of `O=C(O)c1ccc(C(=O)O)c(C(=O)Nc2ccc3c(c2)C(=O)c2ccccc2-3)c1`, in [9], the TGI is more than 100 µM.
With `O=C(COC(=O)c1cccc2c(=O)c3ccccc3[nH]c12)Nc1ccc(C(=O)O)cc1`, the TGI was more than 100 µM in experiment [2]; more than 100 µM in experiment [8]; 95.6 µM in experiment [3]; more than 100 µM in [4]; more than 100 µM in [7]; more than 100 µM in experiment [6].
As to `CC(=O)NC1C(OCc2ccccc2)OC(COC(=O)CCCCCCCCCCNc2ccc([N+](=O)[O-])c3[nH]c4ccccc4c(=O)c23)C(O)C1OC(C)C(=O)NC(C)C(=O)NC(CCC(N)=O)C(=O)OCc1ccccc1` (centres undefined), the TGI in experiment [1], in experiment [2], in [3], in [4], in experiment [7] and in experiment [5] was more than 100 µM throughout. Besides, the TGI in experiment [6] was more than 100 µM.
The molecule `CC(C)(C)c1c2c(c(C(C)(C)C)c3c1OCN(Cc1ccccc1)C3)OCN(Cc1ccccc1)C2` returned a TGI in experiment [9] of 30.3 µM.
As for `COC(=O)C1=C(C(=O)OC)C2(C)Nc3ccccc3C2=C(c2ccccc2)C1` (centres undefined), the TGI is 43.7 µM in [1]; 44.4 µM in experiment [2]; 27 µM in [3]; 46.9 µM in experiment [4]; more than 100 µM in experiment [7]; 32.1 µM in experiment [5].
Turning to `Clc1ccc(-c2c(C3=NCCCN3)nnn2-c2ccccc2)cc1`, the TGI in experiment [1], in [2], in experiment [8], in [3], in experiment [4] and in experiment [7] was more than 100 µM in each case. The TGI in experiment [5] and in [6] was more than 100 µM each time.
Take `COc1cc2c(cc1OC)C1Cc3cc(OC)c(OC)cc3C(C2)N1C`: the TGI is more than 75 µM in experiment [9]; more than 100 µM in [3]; more than 100 µM in experiment [4]; more than 100 µM in experiment [7]; more than 100 µM in experiment [5].
In experiment [9], `O=c1ssc(Cl)c1Cl` displayed a TGI of more than 10 µM.
For the molecule `NCC1OC(OC2C(CO)OC(OC3C(O)C(N)CC(N)C3OC3OC(CO)C(O)CC3N)C2O)C(N)C(O)C1OC1OC(CO)C(O)C(O)C1O` (centres undefined), in experiment [9], the GI50 is more than 50 µg/mL and the TGI is more than 50 µg/mL.
On to `CC(=O)Nc1ccc(COC(O)CN2CCCCC2)cc1[N+](=O)[O-]` (centres undefined), for which the TGI in experiment [9] is more than 100 µM.
Same read-out and setting: in the case of `Cc1cc(C(C)(C)C)cc(CNC2CCCCC2)c1O` it was 29.9 µM.
For `OCCN1CCN2C=C(C3CCCC4N(CCO)CCN34)CCC21` (centres undefined), the TGI in experiment [1] was more than 100 µM; in [2] it was 72.5 µM; in experiment [3], more than 100 µM; in experiment [4], more than 100 µM; in [7], more than 100 µM; in experiment [5] it was more than 100 µM. The molecule further had a TGI in experiment [6] of more than 100 µM.
For the molecule `NCOC(=O)Cc1ccc(Br)cc1`, in experiment [9], the TGI was more than 100 µM.
`O=C1c2cc([N+](=O)[O-])ccc2-c2ccc3c4ccc5c6c(ccc(c7ccc1c2c73)c64)C(=O)c1cc([N+](=O)[O-])ccc1-5` registered a TGI in experiment [9] of more than 100 µM.
Still for that read-out and setting: in the case of `CN(Cc1cc(Cl)cc(Cl)c1O)Cc1c(O)ccc2ccccc12` it was 66.1 µM.
As to `NNC(=O)N/N=C1\C(=O)N(c2ccc(Cl)c(Cl)c2)C(=O)C(=O)C1c1nc2ccccc2s1` (centres undefined), the TGI in experiment [1], in experiment [2], in experiment [3], in experiment [4], in experiment [7] and in [5] was more than 100 µM throughout. In addition, the TGI in [6] was more than 100 µM.
